Some test systems named below: UACC-257; MDA-MB-435; 786-0; SNB-19; COLO 205; U-251; LOX IMVI; UO-31; A498; T47D; MOLT-4; SK-MEL-28; MDA-N; SK-MEL-5; OVCAR-4; TK-10; NCI-H226; DU-145; HT-29; SNB-75.
Common to all, as to assay: NCI-60 cell line screen, 48 h

Molecules are shown by their SMILES.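 Test compounds were applied to cells in 96-well plates for 48 hours at 5 doses. Here, GI50 denotes the concentration required for 50% inhibition of growth.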 Calls of active or inactive are those of the source. Cut-off read from the data, not from the text of the source: active = GI50 up to about 1.1 µM and inactive = higher. Bounds are passed on as bounds.

As for `C[N+]1(C)CCOC(O)(c2ccccc2)C1` (stereo not given), the GI50 in the assay on UACC-257, in the assay with MDA-MB-435, with 786-0, in the assay with SNB-19, with COLO 205 and in the assay on U-251 was > 100 µM (inactive) throughout. The GI50 in the assay on LOX IMVI, with UO-31, in the assay on A498, in the assay with T47D, in the assay with MOLT-4 and with SK-MEL-28 was > 100 µM (inactive) in each case. In addition, the GI50 with MDA-N, with SK-MEL-5, in the assay with OVCAR-4, in the assay with TK-10, in the assay with NCI-H226 and in the assay with DU-145 was > 100 µM (inactive) in each case. Moreover, the GI50 in the assay with HT-29 and with SNB-75 was > 100 µM (inactive) each time.

In the case of `CCOC(=O)/C=C(/OCC)[C@@H]1C(C(=O)c2ccc(Cl)cc2)[C@H]1/C(=C\C(=O)OCC)OCC` (stereo not given in full), the GI50 with UACC-257 is > 100 µM (inactive); in the assay on MDA-MB-435 it was > 100 µM (inactive); in the assay with 786-0 it was > 100 µM (inactive); in the assay on SNB-19, > 100 µM (inactive); in the assay with COLO 205, 95.3 µM (inactive); in the assay with U-251 it was > 100 µM (inactive). The GI50 with LOX IMVI is > 100 µM (inactive); in the assay with UO-31, 8.79 µM (inactive); with A498 it was > 100 µM (inactive); with T47D, > 72.9 µM (inactive); in the assay on MOLT-4 it was > 20.5 µM (inactive); with SK-MEL-28, > 100 µM (inactive). Also, the GI50 was > 100 µM (inactive) in the assay on MDA-N; 24.9 µM (inactive) in the assay with SK-MEL-5; > 100 µM (inactive) in the assay with OVCAR-4; > 40.5 µM (inactive) in the assay on TK-10; > 100 µM (inactive) in the assay on NCI-H226; > 100 µM (inactive) with DU-145. Moreover, the GI50 in the assay with HT-29 is > 51.2 µM (inactive); in the assay on SNB-75, 25.5 µM (inactive).

`CCc1nc(N)nc(N)c1-c1ccc(Cl)c([N+](=O)[O-])c1`: the GI50 in the assay with UACC-257 is 6.14 µM (inactive); in the assay with MDA-MB-435 it was 0.0752 µM (active); with 786-0, 0.0869 µM (active); in the assay with SNB-19, 10.5 µM (inactive); in the assay on COLO 205 it was 6.71 µM (inactive); in the assay with U-251, 0.126 µM (active). Besides, the GI50 was 0.0524 µM (active) with LOX IMVI; 1.18 µM (inactive) with UO-31; 2.49 µM (inactive) with A498; 10.5 µM (inactive) in the assay on T47D; 0.258 µM (active) in the assay with MOLT-4; 37.9 µM (inactive) with SK-MEL-28. Also, the GI50 in the assay on MDA-N is 0.0764 µM (active); in the assay on SK-MEL-5 it was 0.417 µM (active); in the assay on OVCAR-4 it was 22.6 µM (inactive); in the assay with TK-10, 17.9 µM (inactive); in the assay with NCI-H226 it was 18.2 µM (inactive); in the assay on DU-145, 0.611 µM (active). Also, the GI50 in the assay on HT-29 is 0.0588 µM (active); with SNB-75, 4.29 µM (inactive).

In the case of `Nc1nc(Cl)cc(NCC2(CO)CC(OCc3ccccc3)C2)n1` (stereo not given), the GI50 in the assay on UACC-257 was > 100 µM (inactive); in the assay with MDA-MB-435 it was 43.6 µM (inactive); in the assay on 786-0, > 100 µM (inactive); in the assay with SNB-19, 41.9 µM (inactive); in the assay on COLO 205, > 100 µM (inactive); in the assay with U-251, 90.4 µM (inactive). The GI50 was 23.2 µM (inactive) in the assay on LOX IMVI; > 100 µM (inactive) in the assay with UO-31; 16.9 µM (inactive) in the assay on A498; 2.94 µM (inactive) in the assay with T47D; > 10 µM (inactive) in the assay on MOLT-4; > 100 µM (inactive) in the assay on SK-MEL-28. Moreover, the GI50 was > 100 µM (inactive) in the assay with MDA-N; 7 µM (inactive) with SK-MEL-5; 27.5 µM (inactive) in the assay with OVCAR-4; 19.4 µM (inactive) in the assay on TK-10; 25.6 µM (inactive) in the assay on NCI-H226; > 100 µM (inactive) in the assay with DU-145. In addition, the GI50 is > 100 µM (inactive) with HT-29 and 16.4 µM (inactive) with SNB-75.

`COc1cc2c(c(OC)c1OC)-c1c(cc3c(c1OC)OCO3)CC(C)C(C)(O)C2OC(=O)c1ccccc1` (stereo not given): the GI50 with UACC-257 is 44.9 µM (inactive); in the assay with MDA-MB-435 it was 55 µM (inactive); in the assay on 786-0, 55.1 µM (inactive); in the assay with SNB-19, 37.8 µM (inactive); in the assay with COLO 205, 22.5 µM (inactive); in the assay on U-251, 39.9 µM (inactive). Further, the GI50 with LOX IMVI was 31.2 µM (inactive); in the assay on UO-31, 21.1 µM (inactive); in the assay with A498 it was 39.8 µM (inactive); with T47D, 42.3 µM (inactive); in the assay with MOLT-4 it was 5.58 µM (inactive); in the assay on SK-MEL-28, 63.7 µM (inactive). Moreover, the GI50 with MDA-N is 60.7 µM (inactive); in the assay with SK-MEL-5 it was 31.1 µM (inactive); in the assay with OVCAR-4, 35.3 µM (inactive); in the assay with TK-10, 96.2 µM (inactive); with NCI-H226, 29.4 µM (inactive); with DU-145, 69.8 µM (inactive). In addition, the GI50 in the assay with HT-29 is 25.8 µM (inactive); in the assay with SNB-75 it was 41 µM (inactive).

In the case of `CCOC(=O)NN(C(=O)OCC)C(C(=O)C1=CCCCC1)N(NC(=O)OCC)C(=O)OCC`, the GI50 in the assay on UACC-257, in the assay with MDA-MB-435, with 786-0, in the assay with SNB-19, with COLO 205 and in the assay with U-251 was > 100 µM (inactive) each time. Further, the GI50 is > 100 µM (inactive) in the assay with LOX IMVI; > 100 µM (inactive) in the assay on UO-31; 22.6 µM (inactive) in the assay with A498; > 100 µM (inactive) in the assay on T47D; > 100 µM (inactive) in the assay with MOLT-4; > 100 µM (inactive) with SK-MEL-28. The GI50 with MDA-N, in the assay on SK-MEL-5, in the assay with OVCAR-4, in the assay with TK-10, in the assay with NCI-H226 and in the assay with DU-145 was > 100 µM (inactive) each time. For the same molecule, the GI50 in the assay with HT-29 and in the assay on SNB-75 was > 100 µM (inactive) throughout.

With `CCO/C=N/NC(=O)CSc1nc2ccc(I)cc2c(=O)n1Cc1ccccc1`, the GI50 is > 100 µM (inactive) in the assay on UACC-257; 38.7 µM (inactive) with MDA-MB-435; 56 µM (inactive) in the assay on 786-0; 44.2 µM (inactive) in the assay with SNB-19; 57.4 µM (inactive) in the assay on COLO 205; 35.9 µM (inactive) with U-251. Further, the GI50 is 63.8 µM (inactive) in the assay with LOX IMVI; > 100 µM (inactive) with UO-31; 84.5 µM (inactive) with A498; 44.9 µM (inactive) in the assay with T47D; 28.5 µM (inactive) in the assay on MOLT-4; > 100 µM (inactive) in the assay on SK-MEL-28. Further, the GI50 with MDA-N was 37.8 µM (inactive); with SK-MEL-5, > 100 µM (inactive); in the assay on OVCAR-4, > 100 µM (inactive); in the assay with TK-10, 34.7 µM (inactive); with NCI-H226 it was 64.4 µM (inactive); in the assay on DU-145, > 100 µM (inactive). Besides, the values for the GI50 with HT-29 and in the assay on SNB-75 were 40.2 µM (inactive) and 40.5 µM (inactive), respectively.

As to `COc1ccc2[nH]c3c(c2c1)CCc1c(OC)cccc1-3`, the GI50 in the assay with UACC-257 is > 100 µM (inactive); in the assay on MDA-MB-435, > 100 µM (inactive); in the assay on 786-0, > 100 µM (inactive); in the assay with SNB-19, > 100 µM (inactive); in the assay with COLO 205, > 100 µM (inactive); in the assay with U-251, 28.8 µM (inactive). For the same molecule, the GI50 in the assay on LOX IMVI is > 100 µM (inactive); with UO-31 it was > 100 µM (inactive); with A498, > 100 µM (inactive); in the assay with T47D it was 14.5 µM (inactive); with MOLT-4, 29.9 µM (inactive); in the assay with SK-MEL-28 it was > 100 µM (inactive). In addition, the GI50 in the assay on MDA-N is > 100 µM (inactive); in the assay on SK-MEL-5, > 100 µM (inactive); with OVCAR-4, 40.3 µM (inactive); with TK-10 it was > 100 µM (inactive); with NCI-H226 it was > 100 µM (inactive); with DU-145 it was > 100 µM (inactive). For the same molecule, the GI50 was > 100 µM (inactive) with HT-29 and 70 µM (inactive) in the assay on SNB-75.

As to `CNC(=O)OCc1c(COC(=O)NC)c(-c2ccc(-c3ccccc3)cc2)n(C)c1C`, the GI50 was 6.95 µM (inactive) with UACC-257; 5.41 µM (inactive) in the assay on MDA-MB-435; 1.56 µM (inactive) with 786-0; 3.33 µM (inactive) in the assay with SNB-19; 4.32 µM (inactive) with COLO 205; 1.92 µM (inactive) with U-251. Besides, the GI50 with LOX IMVI was 2.19 µM (inactive); in the assay with UO-31 it was 1.18 µM (inactive); in the assay with A498 it was 0.504 µM (active); in the assay with T47D it was 2.39 µM (inactive); in the assay with MOLT-4, 0.299 µM (active); in the assay with SK-MEL-28 it was 10.9 µM (inactive). Besides, the GI50 was 4.34 µM (inactive) with MDA-N; 3.1 µM (inactive) in the assay on SK-MEL-5; 3.08 µM (inactive) with OVCAR-4; 3.15 µM (inactive) in the assay with TK-10; 7.98 µM (inactive) in the assay with NCI-H226; 2.18 µM (inactive) with DU-145. The GI50 with HT-29 was 2.7 µM (inactive); with SNB-75 it was 2.95 µM (inactive).

For `CC(NC1=NCCO1)c1ccccc1Cl` (stereo not given), the GI50 with UACC-257, in the assay on MDA-MB-435, with 786-0, in the assay with SNB-19, with COLO 205 and in the assay on U-251 was > 100 µM (inactive) throughout. In addition, the GI50 with LOX IMVI was > 100 µM (inactive); in the assay on UO-31 it was > 100 µM (inactive); with A498, > 100 µM (inactive); with T47D, > 100 µM (inactive); in the assay on MOLT-4, 91.8 µM (inactive); in the assay on SK-MEL-28 it was > 100 µM (inactive). For the same molecule, the GI50 in the assay with MDA-N is > 100 µM (inactive); in the assay on SK-MEL-5, > 100 µM (inactive); in the assay with OVCAR-4, > 100 µM (inactive); in the assay with TK-10, > 100 µM (inactive); in the assay on NCI-H226, 58.1 µM (inactive); in the assay on DU-145, > 100 µM (inactive). For the same molecule, the GI50 in the assay with HT-29 was 25.1 µM (inactive); in the assay with SNB-75, 96.2 µM (inactive).
